Laboratory results reported in PubChem BioAssay (NCI).
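Grown in 96-well plates, cells were treated for 48 hours with each compound at five concentrations. Insufficient inhibition: endpoint recorded as highest concentration tested. The concentration for full growth arrest is given as TGI.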

The compounds below were run on NCI-H522 lung (assay: NCI anticancer screen, dose series, 48 h).

SMILES	TGI [µM]
O=c1c2ccccc2c2c3c1cccc3c1cccc3c(=O)c4ccccc4c2c31	> 100
COC(=O)C(=O)C(C(=O)C(=O)Nc1cc([N+](=O)[O-])ccc1C#N)c1nc2ccccc2[nH]c1=O (stereo not given)	> 100
CC(C)(C)C1(O)Cc2ccccc2C(=O)O1 (stereo not given)	> 100

The compounds below were run on SNB-75 CNS (assay: NCI anticancer screen, dose series, 48 h).

SMILES	TGI [µM]
O=c1c2ccccc2c2c3c1cccc3c1cccc3c(=O)c4ccccc4c2c31	> 100
COC(=O)C(=O)C(C(=O)C(=O)Nc1cc([N+](=O)[O-])ccc1C#N)c1nc2ccccc2[nH]c1=O (stereo not given)	> 100
CC(C)(C)C1(O)Cc2ccccc2C(=O)O1 (stereo not given)	> 100

What follows are compounds tested on UACC-257 melanoma (assay: NCI anticancer screen, dose series, 48 h).

SMILES	TGI [µM]
O=c1c2ccccc2c2c3c1cccc3c1cccc3c(=O)c4ccccc4c2c31	> 100
Clc1ccc(CNc2nc3ccccc3nc2-c2cccs2)c(Cl)c1	> 100
COC(=O)C(=O)C(C(=O)C(=O)Nc1cc([N+](=O)[O-])ccc1C#N)c1nc2ccccc2[nH]c1=O (stereo not given)	> 100
CC(C)(C)C1(O)Cc2ccccc2C(=O)O1 (stereo not given)	> 100

The compounds below were run on LXFL 529 NSCLC (assay: NCI anticancer screen, dose series, 48 h).

SMILES	TGI [µM]
O=c1c2ccccc2c2c3c1cccc3c1cccc3c(=O)c4ccccc4c2c31	> 100
Clc1ccc(CNc2nc3ccccc3nc2-c2cccs2)c(Cl)c1	> 100
COC(=O)C(=O)C(C(=O)C(=O)Nc1cc([N+](=O)[O-])ccc1C#N)c1nc2ccccc2[nH]c1=O (stereo not given)	> 100
CC(C)(C)C1(O)Cc2ccccc2C(=O)O1 (stereo not given)	> 100

Each compound was assayed on SK-MEL-28 melanoma (assay: NCI anticancer screen, dose series, 48 h).

SMILES	TGI [µM]
O=c1c2ccccc2c2c3c1cccc3c1cccc3c(=O)c4ccccc4c2c31	> 100
Clc1ccc(CNc2nc3ccccc3nc2-c2cccs2)c(Cl)c1	> 100
COC(=O)C(=O)C(C(=O)C(=O)Nc1cc([N+](=O)[O-])ccc1C#N)c1nc2ccccc2[nH]c1=O (stereo not given)	> 100
CC(C)(C)C1(O)Cc2ccccc2C(=O)O1 (stereo not given)	> 100

The compounds below were run on SF-539 CNS (assay: NCI anticancer screen, dose series, 48 h).

SMILES	TGI [µM]
O=c1c2ccccc2c2c3c1cccc3c1cccc3c(=O)c4ccccc4c2c31	> 100
Clc1ccc(CNc2nc3ccccc3nc2-c2cccs2)c(Cl)c1	> 100
COC(=O)C(=O)C(C(=O)C(=O)Nc1cc([N+](=O)[O-])ccc1C#N)c1nc2ccccc2[nH]c1=O (stereo not given)	> 100
CC(C)(C)C1(O)Cc2ccccc2C(=O)O1 (stereo not given)	> 100

The compounds below were run on SN12C renal (assay: NCI anticancer screen, dose series, 48 h).

SMILES	TGI [µM]
O=c1c2ccccc2c2c3c1cccc3c1cccc3c(=O)c4ccccc4c2c31	> 100
Clc1ccc(CNc2nc3ccccc3nc2-c2cccs2)c(Cl)c1	> 100
COC(=O)C(=O)C(C(=O)C(=O)Nc1cc([N+](=O)[O-])ccc1C#N)c1nc2ccccc2[nH]c1=O (stereo not given)	> 100
CC(C)(C)C1(O)Cc2ccccc2C(=O)O1 (stereo not given)	> 100

What follows are compounds tested on SF-295 CNS (assay: NCI anticancer screen, dose series, 48 h).

SMILES	TGI [µM]
O=c1c2ccccc2c2c3c1cccc3c1cccc3c(=O)c4ccccc4c2c31	> 100
Clc1ccc(CNc2nc3ccccc3nc2-c2cccs2)c(Cl)c1	> 100
COC(=O)C(=O)C(C(=O)C(=O)Nc1cc([N+](=O)[O-])ccc1C#N)c1nc2ccccc2[nH]c1=O (stereo not given)	> 100
CC(C)(C)C1(O)Cc2ccccc2C(=O)O1 (stereo not given)	> 100

These compounds were tested on 786-0 renal (assay: NCI anticancer screen, dose series, 48 h).

SMILES	TGI [µM]
O=c1c2ccccc2c2c3c1cccc3c1cccc3c(=O)c4ccccc4c2c31	> 100
Clc1ccc(CNc2nc3ccccc3nc2-c2cccs2)c(Cl)c1	> 100
COC(=O)C(=O)C(C(=O)C(=O)Nc1cc([N+](=O)[O-])ccc1C#N)c1nc2ccccc2[nH]c1=O (stereo not given)	> 100
CC(C)(C)C1(O)Cc2ccccc2C(=O)O1 (stereo not given)	> 100

Each compound was assayed on XF 498 CNS (assay: NCI anticancer screen, dose series, 48 h).

SMILES	TGI [µM]
Clc1ccc(CNc2nc3ccccc3nc2-c2cccs2)c(Cl)c1	> 100
COC(=O)C(=O)C(C(=O)C(=O)Nc1cc([N+](=O)[O-])ccc1C#N)c1nc2ccccc2[nH]c1=O (stereo not given)	> 100

What follows are compounds tested on KM20L2 colon (assay: NCI anticancer screen, dose series, 48 h).

SMILES	TGI [µM]
O=c1c2ccccc2c2c3c1cccc3c1cccc3c(=O)c4ccccc4c2c31	> 100
Clc1ccc(CNc2nc3ccccc3nc2-c2cccs2)c(Cl)c1	> 100
COC(=O)C(=O)C(C(=O)C(=O)Nc1cc([N+](=O)[O-])ccc1C#N)c1nc2ccccc2[nH]c1=O (stereo not given)	> 100
CC(C)(C)C1(O)Cc2ccccc2C(=O)O1 (stereo not given)	> 100

What follows are compounds tested on NCI-H226 lung (assay: NCI anticancer screen, dose series, 48 h).

SMILES	TGI [µM]
O=c1c2ccccc2c2c3c1cccc3c1cccc3c(=O)c4ccccc4c2c31	> 100
Clc1ccc(CNc2nc3ccccc3nc2-c2cccs2)c(Cl)c1	> 100
COC(=O)C(=O)C(C(=O)C(=O)Nc1cc([N+](=O)[O-])ccc1C#N)c1nc2ccccc2[nH]c1=O (stereo not given)	> 100
CC(C)(C)C1(O)Cc2ccccc2C(=O)O1 (stereo not given)	> 100

These compounds were tested on COLO 205 colon (assay: NCI anticancer screen, dose series, 48 h).

SMILES	TGI [µM]
O=c1c2ccccc2c2c3c1cccc3c1cccc3c(=O)c4ccccc4c2c31	> 100
Clc1ccc(CNc2nc3ccccc3nc2-c2cccs2)c(Cl)c1	> 100
COC(=O)C(=O)C(C(=O)C(=O)Nc1cc([N+](=O)[O-])ccc1C#N)c1nc2ccccc2[nH]c1=O (stereo not given)	> 100
CC(C)(C)C1(O)Cc2ccccc2C(=O)O1 (stereo not given)	> 100

What follows are compounds tested on NCI-H460 lung (assay: NCI anticancer screen, dose series, 48 h).

SMILES	TGI [µM]
O=c1c2ccccc2c2c3c1cccc3c1cccc3c(=O)c4ccccc4c2c31	> 100
Clc1ccc(CNc2nc3ccccc3nc2-c2cccs2)c(Cl)c1	> 100
COC(=O)C(=O)C(C(=O)C(=O)Nc1cc([N+](=O)[O-])ccc1C#N)c1nc2ccccc2[nH]c1=O (stereo not given)	> 100
CC(C)(C)C1(O)Cc2ccccc2C(=O)O1 (stereo not given)	> 100

Each compound was assayed on HCC-2998 colon (assay: NCI anticancer screen, dose series, 48 h).

SMILES	TGI [µM]
O=c1c2ccccc2c2c3c1cccc3c1cccc3c(=O)c4ccccc4c2c31	> 100
Clc1ccc(CNc2nc3ccccc3nc2-c2cccs2)c(Cl)c1	> 100
COC(=O)C(=O)C(C(=O)C(=O)Nc1cc([N+](=O)[O-])ccc1C#N)c1nc2ccccc2[nH]c1=O (stereo not given)	> 100
CC(C)(C)C1(O)Cc2ccccc2C(=O)O1 (stereo not given)	> 100

The compounds below were run on HOP-92 NSCLC (assay: NCI anticancer screen, dose series, 48 h).

SMILES	TGI [µM]
O=c1c2ccccc2c2c3c1cccc3c1cccc3c(=O)c4ccccc4c2c31	> 100
Clc1ccc(CNc2nc3ccccc3nc2-c2cccs2)c(Cl)c1	76.6
COC(=O)C(=O)C(C(=O)C(=O)Nc1cc([N+](=O)[O-])ccc1C#N)c1nc2ccccc2[nH]c1=O (stereo not given)	> 100
CC(C)(C)C1(O)Cc2ccccc2C(=O)O1 (stereo not given)	> 100

The compounds below were run on TK-10 renal (assay: NCI anticancer screen, dose series, 48 h).

SMILES	TGI [µM]
O=c1c2ccccc2c2c3c1cccc3c1cccc3c(=O)c4ccccc4c2c31	> 100
Clc1ccc(CNc2nc3ccccc3nc2-c2cccs2)c(Cl)c1	> 100
COC(=O)C(=O)C(C(=O)C(=O)Nc1cc([N+](=O)[O-])ccc1C#N)c1nc2ccccc2[nH]c1=O (stereo not given)	> 100
CC(C)(C)C1(O)Cc2ccccc2C(=O)O1 (stereo not given)	> 100

Each compound was assayed on M19-MEL melanoma (assay: NCI anticancer screen, dose series, 48 h).

SMILES	TGI [µM]
O=c1c2ccccc2c2c3c1cccc3c1cccc3c(=O)c4ccccc4c2c31	> 100
Clc1ccc(CNc2nc3ccccc3nc2-c2cccs2)c(Cl)c1	> 100
COC(=O)C(=O)C(C(=O)C(=O)Nc1cc([N+](=O)[O-])ccc1C#N)c1nc2ccccc2[nH]c1=O (stereo not given)	> 100
CC(C)(C)C1(O)Cc2ccccc2C(=O)O1 (stereo not given)	> 100

The compounds below were run on U251 CNS (assay: NCI anticancer screen, dose series, 48 h).

SMILES	TGI [µM]
O=c1c2ccccc2c2c3c1cccc3c1cccc3c(=O)c4ccccc4c2c31	> 100
Clc1ccc(CNc2nc3ccccc3nc2-c2cccs2)c(Cl)c1	> 100
CC(C)(C)C1(O)Cc2ccccc2C(=O)O1 (stereo not given)	> 100

Each compound was assayed on RXF-631 renal (assay: NCI anticancer screen, dose series, 48 h).

SMILES	TGI [µM]
O=c1c2ccccc2c2c3c1cccc3c1cccc3c(=O)c4ccccc4c2c31	> 100
Clc1ccc(CNc2nc3ccccc3nc2-c2cccs2)c(Cl)c1	> 100
COC(=O)C(=O)C(C(=O)C(=O)Nc1cc([N+](=O)[O-])ccc1C#N)c1nc2ccccc2[nH]c1=O (stereo not given)	> 100
CC(C)(C)C1(O)Cc2ccccc2C(=O)O1 (stereo not given)	> 100

The compounds below were run on DMS 114 small cell lung (assay: NCI anticancer screen, dose series, 48 h).

SMILES	TGI [µM]
O=c1c2ccccc2c2c3c1cccc3c1cccc3c(=O)c4ccccc4c2c31	> 100
COC(=O)C(=O)C(C(=O)C(=O)Nc1cc([N+](=O)[O-])ccc1C#N)c1nc2ccccc2[nH]c1=O (stereo not given)	> 100
CC(C)(C)C1(O)Cc2ccccc2C(=O)O1 (stereo not given)	> 100

What follows are compounds tested on SR leukemia (assay: NCI anticancer screen, dose series, 48 h).

SMILES	TGI [µM]
O=c1c2ccccc2c2c3c1cccc3c1cccc3c(=O)c4ccccc4c2c31	> 100
Clc1ccc(CNc2nc3ccccc3nc2-c2cccs2)c(Cl)c1	> 100
COC(=O)C(=O)C(C(=O)C(=O)Nc1cc([N+](=O)[O-])ccc1C#N)c1nc2ccccc2[nH]c1=O (stereo not given)	> 100
CC(C)(C)C1(O)Cc2ccccc2C(=O)O1 (stereo not given)	> 100

What follows are compounds tested on DMS 273 small cell lung (assay: NCI anticancer screen, dose series, 48 h).

SMILES	TGI [µM]
O=c1c2ccccc2c2c3c1cccc3c1cccc3c(=O)c4ccccc4c2c31	> 100
Clc1ccc(CNc2nc3ccccc3nc2-c2cccs2)c(Cl)c1	> 100
COC(=O)C(=O)C(C(=O)C(=O)Nc1cc([N+](=O)[O-])ccc1C#N)c1nc2ccccc2[nH]c1=O (stereo not given)	> 100
CC(C)(C)C1(O)Cc2ccccc2C(=O)O1 (stereo not given)	> 100

These compounds were tested on KM12 colon (assay: NCI anticancer screen, dose series, 48 h).

SMILES	TGI [µM]
O=c1c2ccccc2c2c3c1cccc3c1cccc3c(=O)c4ccccc4c2c31	> 100
COC(=O)C(=O)C(C(=O)C(=O)Nc1cc([N+](=O)[O-])ccc1C#N)c1nc2ccccc2[nH]c1=O (stereo not given)	> 100
CC(C)(C)C1(O)Cc2ccccc2C(=O)O1 (stereo not given)	> 100

Each compound was assayed on HCT-116 colon (assay: NCI anticancer screen, dose series, 48 h).

SMILES	TGI [µM]
O=c1c2ccccc2c2c3c1cccc3c1cccc3c(=O)c4ccccc4c2c31	> 100
Clc1ccc(CNc2nc3ccccc3nc2-c2cccs2)c(Cl)c1	> 100
COC(=O)C(=O)C(C(=O)C(=O)Nc1cc([N+](=O)[O-])ccc1C#N)c1nc2ccccc2[nH]c1=O (stereo not given)	> 100
CC(C)(C)C1(O)Cc2ccccc2C(=O)O1 (stereo not given)	> 100

Each compound was assayed on A498 renal (assay: NCI anticancer screen, dose series, 48 h).

SMILES	TGI [µM]
O=c1c2ccccc2c2c3c1cccc3c1cccc3c(=O)c4ccccc4c2c31	> 100
CC(C)(C)C1(O)Cc2ccccc2C(=O)O1 (stereo not given)	> 100

These compounds were tested on SNB-19 CNS (assay: NCI anticancer screen, dose series, 48 h).

SMILES	TGI [µM]
O=c1c2ccccc2c2c3c1cccc3c1cccc3c(=O)c4ccccc4c2c31	> 100
Clc1ccc(CNc2nc3ccccc3nc2-c2cccs2)c(Cl)c1	> 100
COC(=O)C(=O)C(C(=O)C(=O)Nc1cc([N+](=O)[O-])ccc1C#N)c1nc2ccccc2[nH]c1=O (stereo not given)	> 100
CC(C)(C)C1(O)Cc2ccccc2C(=O)O1 (stereo not given)	> 100

What follows are compounds tested on OVCAR-4 ovarian (assay: NCI anticancer screen, dose series, 48 h).

SMILES	TGI [µM]
O=c1c2ccccc2c2c3c1cccc3c1cccc3c(=O)c4ccccc4c2c31	> 100
COC(=O)C(=O)C(C(=O)C(=O)Nc1cc([N+](=O)[O-])ccc1C#N)c1nc2ccccc2[nH]c1=O (stereo not given)	> 100
CC(C)(C)C1(O)Cc2ccccc2C(=O)O1 (stereo not given)	> 100

The compounds below were run on LOX IMVI melanoma (assay: NCI anticancer screen, dose series, 48 h).

SMILES	TGI [µM]
O=c1c2ccccc2c2c3c1cccc3c1cccc3c(=O)c4ccccc4c2c31	> 100
COC(=O)C(=O)C(C(=O)C(=O)Nc1cc([N+](=O)[O-])ccc1C#N)c1nc2ccccc2[nH]c1=O (stereo not given)	> 100
CC(C)(C)C1(O)Cc2ccccc2C(=O)O1 (stereo not given)	> 100
